target: unphosphorylated-BTK kinase domain (UP-BTK), GST-tagged human BTK (389-659aa) (Homo sapiens (Human), UniProt Q06187); test: BTK Kinase Lanthascreen Binding Assay; settings: Lanthascreen binding, 60 minutes incubation; pIC50 = negative log of the IC50 in molar
Procedure: BTK Kinase Lanthascreen Binding Assay:
A BTK kinase lanthascreen binding assay monitors compound binding to unphosphorylated-BTK kinase domain (UP-BTK), by competing with a fluorescent labeled tracer. […] Data were analyzed using Xlfit™ version 5.3 from ID Business Solutions (Guildford), Microsoft Excel add-in. pIC50 refers to the negative log of the IC50 in molar.

Chain of unphosphorylated-BTK kinase domain (UP-BTK), GST-tagged human BTK (389-659aa) (Q06187 389-659): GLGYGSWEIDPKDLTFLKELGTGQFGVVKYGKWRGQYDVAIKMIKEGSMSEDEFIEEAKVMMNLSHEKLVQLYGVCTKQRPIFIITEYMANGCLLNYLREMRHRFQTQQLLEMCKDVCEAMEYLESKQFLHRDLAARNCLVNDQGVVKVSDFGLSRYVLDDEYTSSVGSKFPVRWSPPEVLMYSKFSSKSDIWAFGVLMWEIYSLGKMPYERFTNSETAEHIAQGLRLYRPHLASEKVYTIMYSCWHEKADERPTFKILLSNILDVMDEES

SMILES | BTK_I_binding pIC50
C=CC(=O)N[C@H]1CCC[C@H]1NC(=O)c1sc2nccc3c2c1NC(=O)N3c1ccc(O[C@@H]2CCOC2)cc1C [Example 386, N-((1R,2S)-2-Acrylamidocyclopentyl)-5-(2-methyl-4-(((R)-tetrahydrofuran-3-yl)oxy)phenyl)-4-oxo-4,5-dihydro-3H-1-thia-3,5,8-triazaacenaphthylene-2-carboxamide] | 7.09
C=CC(=O)N[C@H]1CCC[C@H]1NC(=O)c1sc2nccc3c2c1NC(=O)N3c1ccc(Oc2cccnn2)cc1 [Example 387, N-((1R,2S)-2-Acrylamidocyclopentyl)-4-oxo-5-(4-(pyridazin-3-yloxy)phenyl)-4,5-dihydro-3H-1-thia-3,5,8-triazaacenaphthylene-2-carboxamide] | 7.16
O=C(N[C@@H]1CCC[C@H]1O)c1sc2nccc3c2c1NC(=O)N3c1ccc(Oc2ccccc2)cc1 [Example 393, N-((1R,2R)-2-Hydroxycyclopentyl)-4-oxo-5-(4-phenoxyphenyl)-4,5-dihydro-3H-1-thia-3,5,8-triazaacenaphthylene-2-carboxamide] | 6.74
CC(=O)N[C@H]1CCC[C@H]1NC(=O)c1sc2nccc3c2c1NC(=O)N3c1ccc(Oc2ccccc2)cc1 [Example 396, N-((1R,2S)-2-Acetamidocyclopentyl)-4-oxo-5-(4-phenoxyphenyl)-4,5-dihydro-3H-1-thia-3,5,8-triazaacenaphthylene-2-carboxamide] | 6.66
CCC(=O)N[C@H]1CCC[C@H]1NC(=O)c1sc2nccc3c2c1NC(=O)N3c1ccc(Oc2ccccc2)cc1 [Example 398, 4-Oxo-5-(4-phenoxyphenyl)-N-((1R,2S)-2-propionamidocyclopentyl)-4,5-dihydro-3H-1-thia-3,5,8-triazaacenaphthylene-2-carboxamide] | 6.56
C=CC(=O)N[C@H]1CCCC[C@H]1NC(=O)c1sc2nccc3c2c1NC(=O)N3c1ccc(Oc2ccccn2)cc1C [Example 401, N-((1R,2S)-2-Acrylamidocyclohexyl)-5-(2-methyl-4-(pyridin-2-yloxy)phenyl)-4-oxo-4,5-dihydro-3H-1-thia-3,5,8-triazaacenaphthylene-2-carboxamide] | 6.39
C=CC(=O)N[C@H]1CCCC[C@H]1NC(=O)c1sc2nccc3c2c1NC(=O)N3c1ccc(Oc2cccnn2)cc1C [Example 406, N-((1R,2S)-2-Acrylamidocyclohexyl)-5-(2-methyl-4-(pyridazin-3-yloxy)phenyl)-4-oxo-4,5-dihydro-3H-1-thia-3,5,8-triazaacenaphthylene-2-carboxamide] | 6.13
CN[C@H]1CCN(C(=O)c2sc3nccc4c3c2NC(=O)N4c2ccc(Oc3ccccc3)cc2C)C1 [Example 417, (S)-5-(2-Methyl-4-phenoxyphenyl)-2-(3-(methylamino)pyrrolidine-1-carbonyl)-3H-1-thia-3,5,8-triazaacenaphthylen-4(5H)-one] | 5.89
CCC(=O)N[C@H]1CCN(C(=O)c2sc3nccc4c3c2NC(=O)N4c2ccc(Oc3ccccc3)cc2C)C1 [Example 418, (S)—N-(1-(5-(2-Methyl-4-phenoxyphenyl)-4-oxo-4,5-dihydro-3H-1-thia-3,5,8-triazaacenaphthylene-2-carbonyl)pyrrolidin-3-yl)propionamide] | 5.80
CC(=O)N[C@H]1CCN(C(=O)c2sc3nccc4c3c2NC(=O)N4c2ccc(Oc3ccccc3)cc2C)C1 [Example 419, (S)—N-(1-(5-(2-Methyl-4-phenoxyphenyl)-4-oxo-4,5-dihydro-3H-1-thia-3,5,8-triazaacenaphthylene-2-carbonyl)pyrrolidin-3-yl)acetamide] | 5.79
Cc1cc(Oc2ccccc2)ccc1N1C(=O)Nc2c(C(=O)N3CC[C@H](N)C3)sc3nccc1c23 [Example 420, (S)-2-(3-Aminopyrrolidine-1-carbonyl)-5-(2-methyl-4-phenoxyphenyl)-3H-1-thia-3,5,8-triazaacenaphthylen-4(5H)-one] | 5.73
Cc1cc(Oc2ccccc2)ccc1N1C(=O)Nc2c(C(=O)N3CC[C@H](N(C)C)C3)sc3nccc1c23 [Example 421, (S)-2-(3-(Dimethylamino)pyrrolidine-1-carbonyl)-5-(2-methyl-4-phenoxyphenyl)-3H-1-thia-3,5,8-triazaacenaphthylen-4(5H)-one] | 5.66
CC(=O)N[C@H]1CC[C@H](NC(=O)c2sc3nccc4c3c2NC(=O)N4c2cnc(Oc3ccccc3)cc2C)CC1 [Example 432, N-((1r,4r)-4-Acetamidocyclohexyl)-5-(*S)-(4-methyl-6-phenoxypyridin-3-yl)-4-oxo-4,5-dihydro-3H-1-thia-3,5,8-triazaacenaphthylene-2-carboxamide] | 7.45
C=CC(=O)N[C@H]1CCN(C(=O)c2sc3nccc4c3c2NC(=O)N4c2ccc(Oc3ccccc3)cc2C)C1 [Example 433, (S)—N-(1-(5-(2-Methyl-4-phenoxyphenyl)-4-oxo-4,5-dihydro-3H-1-thia-3,5,8-triazaacenaphthylene-2-carbonyl)pyrrolidin-3-yl)acrylamide] | 7.01
C=CC(=O)N[C@@H]1CCN(C(=O)c2sc3nccc4c3c2NC(=O)N4c2ccc(Oc3ccccc3)cc2C)C1 [Example 434, (R)—N-(1-(5-(2-Methyl-4-phenoxyphenyl)-4-oxo-4,5-dihydro-3H-1-thia-3,5,8-triazaacenaphthylene-2-carbonyl)pyrrolidin-3-yl)acrylamide] | 6.29
Cc1cc(Oc2ccccc2)ccc1N1C(=O)Nc2c(C(=O)N3CC[C@H](NC(=O)/C(C#N)=C/C4CC4)C3)sc3nccc1c23 [Example 435, (S,E)-2-Cyano-3-cyclopropyl-N-(1-(5-(2-methyl-4-phenoxyphenyl)-4-oxo-4,5-dihydro-3H-1-thia-3,5,8-triazaacenaphthylene-2-carbonyl)pyrrolidin-3-yl)acrylamide] | 6.15
Cc1cc(Oc2ccccc2)ccc1N1C(=O)Nc2c(C(=O)N3CC[C@@H](NC(=O)/C(C#N)=C/C4CC4)C3)sc3nccc1c23 [Example 436, (R,E)-2-Cyano-3-cyclopropyl-N-(1-(5-(2-methyl-4-phenoxyphenyl)-4-oxo-4,5-dihydro-3H-1-thia-3,5,8-triazaacenaphthylene-2-carbonyl)pyrrolidin-3-yl)acrylamide] | 6.09
C=CC(=O)N[C@H]1CCC[C@H]1NC(=O)c1sc2nccc3c2c1NC(=O)N3c1ccc(Oc2ccccn2)cc1 [Example 437, N-((1R,2S)-2-Acrylamidocyclopentyl)-4-oxo-5-(4-(pyridin-2-yloxy)phenyl)-4,5-dihydro-3H-1-thia-3,5,8-triazaacenaphthylene-2-carboxamide] | 8.38
C=CC(=O)N[C@H]1CCC[C@H]1NC(=O)c1sc2nccc3c2c1NC(=O)N3c1cccc(C(C)C)c1 [Example 438, N-((1R,2S)-2-Acrylamidocyclopentyl)-5-(3-isopropylphenyl)-4-oxo-4,5-dihydro-3H-1-thia-3,5,8-triazaacenaphthylene-2-carboxamide] | 8.02
C=CC(=O)N[C@H]1CCCC[C@H]1NC(=O)c1sc2nccc3c2c1NC(=O)N3c1ccc(Oc2ccccn2)cc1 [Example 442, N-((1R,2S)-2-Acrylamidocyclohexyl)-4-oxo-5-(4-(pyridin-2-yloxy)phenyl)-4,5-dihydro-3H-1-thia-3,5,8-triazaacenaphthylene-2-carboxamide] | 6.84
Cc1cc(OC(C)C)ccc1N1C(=O)Nc2c(C(=O)N[C@@H]3CCC[C@@H]3N)sc3nccc1c23 [Example 453, N-((1R,2S)-2-Aminocyclopentyl)-5-(4-isopropoxy-2-methylphenyl)-4-oxo-4,5-dihydro-3H-1-thia-3,5,8-triazaacenaphthylene-2-carboxamide] | 6.32
CC(=O)N[C@@H]1CC[C@H](NC(=O)c2sc3nccc4c3c2NC(=O)N4c2ccc(OC(C)C)cc2C)C1 [Example 454, N-((1S,3R)-3-Acetamidocyclopentyl)-5-(4-isopropoxy-2-methylphenyl)-4-oxo-4,5-dihydro-3H-1-thia-3,5,8-triazaacenaphthylene-2-carboxamide] | 6.21
N[C@@H]1CCCC[C@@H]1NC(=O)c1sc2nccc3c2c1NC(=O)N3c1ccc(Oc2ccccc2)cc1 [Example 457, N-((1S,2R)-2-Aminocyclohexyl)-4-oxo-5-(4-phenoxyphenyl)-4,5-dihydro-3H-1-thia-3,5,8-triazaacenaphthylene-2-carboxamide] | 5.81

same assay, conditions: read-out: BTK_I_binding pIC50 (converted)

SMILES | IC50
C=CC(=O)N[C@H]1CCCC[C@H]1NC(=O)c1sc2nccc3c2c1NC(=O)N3c1ccc(Oc2cccnn2)cc1 [Example 408, N-((1R,2S)-2-Acrylamidocyclohexyl)-4-oxo-5-(4-(pyridazin-3-yloxy)phenyl)-4,5-dihydro-3H-1-thia-3,5,8-triazaacenaphthylene-2-carboxamide] | > 1000 nM
CC(C)c1cccc(N2C(=O)Nc3c(C(=O)N[C@@H]4CCC[C@@H]4N)sc4nccc2c34)c1 [Example 455, N-((1R,2S)-2-Aminocyclopentyl)-5-(3-isopropylphenyl)-4-oxo-4,5-dihydro-3H-1-thia-3,5,8-triazaacenaphthylene-2-carboxamide] | > 1000 nM
Cc1cc(OC(C)C)ccc1N1C(=O)Nc2c(C(=O)N[C@@H]3CCC[C@H]3O)sc3nccc1c23 [Example 456, N-((1R,2R)-2-Hydroxycyclopentyl)-5-(4-isopropoxy-2-methylphenyl)-4-oxo-4,5-dihydro-3H-1-thia-3,5,8-triazaacenaphthylene-2-carboxamide] | > 1000 nM

Reference: patent US10934310B2, “Inhibitors of Bruton's tyrosine kinase and method of their use” (JANSSEN PHARMACEUTICA NV, priority 2015, dated 2021)
